BindingDB's records for doi:10.7270/Q23F4N29 (Broad Institute, 2010)
pEC50: −log10 of the molar value.

Target: T1, S-ribosylhomocysteine lyase (Vibrio harveyi, UniProt B0LUE4)
T1 sequence (B0LUE4 whole entry): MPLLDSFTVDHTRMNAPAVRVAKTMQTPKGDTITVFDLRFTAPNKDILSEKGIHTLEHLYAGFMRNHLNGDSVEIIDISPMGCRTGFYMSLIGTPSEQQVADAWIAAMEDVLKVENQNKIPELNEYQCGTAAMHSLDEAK
Experiment: inhibition of purified LuxS SRH cleavage – biochemical, cell-free, homogeneous, mechanism study for V. harveyi quorum sensing inhibitors, dose response (AID 434944)

pEC50	SMILES
< 3.46	COc1cc(NC(=O)CN2C(=O)NC(c3ccccc3)(c3ccccc3)C2=O)cc(OC)c1 [MLS001176525]
< 3.46	CCc1ccc(S(=O)(=O)Nc2ccc(Br)cn2)cc1 [MLS001211346]
< 3.46	Cn1cnc(S(=O)(=O)Nc2ccc(OC(F)(F)F)cc2)c1 [SMR000314513]

Further lines, the molecule ahead of its results:

SMILES	pEC50
C=Cn1c(C(=O)O)ccc1-c1ccc(CC)cc1	3.83
CCCc1ccc(S(=O)(=O)N(C)S(=O)(=O)c2ccc(F)cc2)cc1 [N-(4-fluorophenyl)sulfonyl-N-methyl-4-propylbenzenesulfonamide]	< 3.46
CN(C)S(=O)(=O)c1ccc(NC(=S)NC(=O)Cc2ccccc2)cc1 [N-[[4-(dimethylsulfamoyl)phenyl]carbamothioyl]-2-phenyl-ethanamide]	< 3.46
Cc1cccc(NS(=O)(=O)c2ccc(Oc3ccccc3)cc2)n1 [SMR000071466]	< 3.46
